Test results from PubChem BioAssay AID2060485 (Molecular Pharmacology Branch, DTP, NCI, 2025).

Tested on: A375 multi-cell spheroids with HUVEC/MSC, viability
Assay: Anticancer human tumor A375 cell line growth inhibition [GQUAD];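 also: spheroids exposed to compounds for seven days before readout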
Details: for IC50: curve of first compound; for viability, T/C: stronger effect = lower value
Text: DNA G-quadruplex Stabilizer Agents in Combinations in Complex Spheroids
A high-throughput screen of multi-cell type tumor spheroids was designed to identify active combinations of DNA G-quadruplex stabilizer agents and targeted small molecules. Complex spheroids include a stromal component modeled by human endothelial cells (HUVEC) and fibroblasts modeled by human mesenchymal stem cells (MSCs). The concentration ranges selected for each drug and investigational agent were based upon clinically achievable concentrations if the clinical Cmax of the agent was known.
Compounds. The drugs and investigational agents: pidnarulex (CX-5461; NSC782164), APTO-253 (NSC789042), BRACO-19 (NSC847499), peposertib (NSC802822), ceralasertib (NSC780249), elimusertib (NSC800525), camonsertib (NSC841442), AZD-1390 (NSC803789), olaparib (NSC753686), talazoparib (NSC767125), ART-558 (NSC835418), sotorasib (NSC818433), MRTX-1133 (NSC836407), SN-38 (NSC673596), topotecan (NSC609699), etoposide (NSC141540), doxorubicin (NSC123127), gemcitabine (NSC613327), 5-fluorouracil (NSC19893), paclitaxel (NSC125973), vemurafenib (NSC761431), panobinostat (NSC761190), R-306465 (JNJ-16241199; NSC773264), adavosertib (NSC754352), TP-3654 (NSC805149), carboplatin (NSC241240), KSQ-4279 (NSC840948), and staurosporine (NSC755774) were obtained from the National Cancer Institute (NCI) Developmental Therapeutics Program Chemical Repository (34). The FDA-approved anticancer drug set is available from the NCI Developmental Therapeutics Program. […] The stock solutions were prepared in dimethyl sulfoxide (DMSO, Sigma-Aldrich, St. Louis, MO, cat. D2650) at 800-fold the tested concentration and stored at -70 degrees C prior to their use. All drugs and investigational agents were tested over a range starting from a high concentration at or near the clinical Cmax and decreasing in half-log increments. If the clinical Cmax for an agent had not been determined, the highest concentration tested was 10 microM.
2.3 Cell Culture. All cells were maintained in an incubator at 37 degrees C and 5% CO2 with 95% humidity. The PDC lines were cultured according to standard operating procedures established by the NCI PDMR. All PDCs were thawed and cultured in Matrigel-coated flasks prepared with a working solution of 1X Ham's F-12 nutrient mix, without supplementation (Invitrogen, cat. 11765054), 100 U/mL penicillin-streptomycin (Invitrogen, cat. 15140122), and 2.5% Matrigel (Corning Inc., cat. 354248) for the first three passages. The 857933-349-R-J2-PDC line was cultured in 6C/Colon 1B media, which includes advanced DMEM/F-12 (Thermo Fisher Scientific, cat. 12634028), 10 mM HEPES (Thermo Fisher Scientific, cat. 15630080), 1X GlutaMAX supplement (Thermo Fisher Scientific, cat. 35050061), 0.1 mg/mL primocin (InvivoGen, cat. ant-pm-2), 10% defined fetal bovine serum, heat inactivated (HyClone Laboratories Inc., cat. SH30070.03HI), 50% L-WRN conditioned media (ATCC, cat. CRL-3276), 1.25 mM N-Acetyl-L-cysteine (Sigma-Aldrich, cat. A9165), 10 mM nicotinamide (Sigma-Aldrich, cat. N0636), 1X B-27 supplement (Thermo Fisher Scientific, cat. 17504044), 1X N-2 supplement (Thermo Fisher Scientific, cat. 17502048), 10 microM Y-27632 dihydrochloride (Tocris Bioscience, cat. 1254), and 50 ng/mL human EGF recombinant protein (Thermo Fisher Scientific, cat. PHG0311). The 485176-168-R4-J1-PDC line was cultured in Panc media, which includes all 6C/Colon 1B media components plus 100 ng/mL human FGF-10 (Thermo Fisher Scientific, cat. 100-26), 500 nM SB-431542 (Selleckchem, cat. S1067), and gastrin (Tocris, cat. 3006).
[…]

[1] = second compound 0.0316 µM, first compound 0.0316 µM
[2] = second compound 0.0316 µM, first compound 0.1 µM
[3] = second compound 0.0316 µM, first compound 0.316 µM
[4] = second compound 0.0316 µM, first compound 1 µM
[5] = second compound 0.0316 µM, first compound 3.16 µM
[6] = second compound 0.0316 µM, first compound 10 µM
[7] = second compound 0.1 µM, first compound 0.0316 µM
[8] = second compound 0.1 µM, first compound 0.1 µM
[9] = second compound 0.1 µM, first compound 0.316 µM
[10] = second compound 0.1 µM, first compound 1 µM
[11] = second compound 0.1 µM, first compound 3.16 µM
[12] = second compound 0.1 µM, first compound 10 µM
[13] = second compound 0.316 µM, first compound 0.0316 µM
[14] = second compound 0.316 µM, first compound 0.1 µM
[15] = second compound 0.316 µM, first compound 0.316 µM
[16] = second compound 0.316 µM, first compound 1 µM
[17] = second compound 0.316 µM, first compound 3.16 µM
[18] = second compound 0.316 µM, first compound 10 µM
[19] = second compound 1 µM, first compound 0.0316 µM
[20] = second compound 1 µM, first compound 0.1 µM
[21] = second compound 1 µM, first compound 0.316 µM
[22] = second compound 1 µM, first compound 1 µM
[23] = second compound 1 µM, first compound 3.16 µM
[24] = second compound 1 µM, first compound 10 µM
[25] = second compound 3.16 µM, first compound 0.0316 µM
[26] = second compound 3.16 µM, first compound 0.1 µM
[27] = second compound 3.16 µM, first compound 0.316 µM
[28] = second compound 3.16 µM, first compound 1 µM
[29] = second compound 3.16 µM, first compound 3.16 µM
[30] = second compound 3.16 µM, first compound 10 µM
[31] = second compound 10 µM, first compound 0.0316 µM
[32] = second compound 10 µM, first compound 0.1 µM
[33] = second compound 10 µM, first compound 0.316 µM
[34] = second compound 10 µM, first compound 1 µM
[35] = second compound 10 µM, first compound 3.16 µM
[36] = second compound 10 µM, first compound 10 µM

SMILES: C=CCn1c(=O)c2cnc(Nc3ccc(N4CCN(C)CC4)cc3)nc2n1-c1cccc(C(C)(C)O)n1 + CN(C)c1ccc(Nc2c3ccc(NC(=O)CCN4CCCC4)cc3nc3cc(NC(=O)CCN4CCCC4)ccc23)cc1
- IC50 (second compound 0.0316 µM): 1160 nM
- IC50 (second compound 0.1 µM): 1230 nM
- IC50 (second compound 0.316 µM): 1310 nM
- IC50 (second compound 1 µM): 1380 nM
- IC50 (second compound 3.16 µM): 1440 nM
- IC50 (second compound 10 µM): 1400 nM
- viability, T/C [1]: 99.7%
- viability, T/C [2]: 105%
- viability, T/C [3]: 96.4%
- viability, T/C [4]: 55.9%
- viability, T/C [5]: 12.3%
- viability, T/C [6]: 7.71%
- viability, T/C [7]: 98.4%
- viability, T/C [8]: 100%
- viability, T/C [9]: 104%
- viability, T/C [10]: 58%
- viability, T/C [11]: 15.1%
- viability, T/C [12]: 7.18%
- viability, T/C [13]: 106%
- viability, T/C [14]: 98.7%
- viability, T/C [15]: 99.9%
- viability, T/C [16]: 60.7%
- viability, T/C [17]: 14.2%
- viability, T/C [18]: 6.94%
- viability, T/C [19]: 102%
- viability, T/C [20]: 102%
- viability, T/C [21]: 107%
- viability, T/C [22]: 63.8%
- viability, T/C [23]: 15.3%
- viability, T/C [24]: 6.9%
- viability, T/C [25]: 108%
- viability, T/C [26]: 96.1%
- viability, T/C [27]: 106%
- viability, T/C [28]: 66%
- viability, T/C [29]: 15.6%
- viability, T/C [30]: 8.34%
- viability, T/C [31]: 103%
- viability, T/C [32]: 93.3%
- viability, T/C [33]: 105%
- viability, T/C [34]: 63.5%
- viability, T/C [35]: 17.4%
- viability, T/C [36]: 8.32%

SMILES: O=C(NO)c1cnc(N2CCN(S(=O)(=O)c3ccc4ccccc4c3)CC2)nc1 + CN(C)c1ccc(Nc2c3ccc(NC(=O)CCN4CCCC4)cc3nc3cc(NC(=O)CCN4CCCC4)ccc23)cc1
- IC50 (second compound 0.0316 µM): 188 nM
- IC50 (second compound 0.1 µM): 191 nM
- IC50 (second compound 0.316 µM): 186 nM
- IC50 (second compound 1 µM): 190 nM
- IC50 (second compound 3.16 µM): 189 nM
- IC50 (second compound 10 µM): 189 nM
- viability, T/C [1]: 121%
- viability, T/C [2]: 105%
- viability, T/C [3]: 4.84%
- viability, T/C [4]: 0.29%
- viability, T/C [5]: 0.27%
- viability, T/C [6]: 0.29%
- viability, T/C [7]: 107%
- viability, T/C [8]: 108%
- viability, T/C [9]: 5.35%
- viability, T/C [10]: 0.26%
- viability, T/C [11]: 0.22%
- viability, T/C [12]: 0.25%
- viability, T/C [13]: 108%
- viability, T/C [14]: 103%
- viability, T/C [15]: 4.36%
- viability, T/C [16]: 0.25%
- viability, T/C [17]: 0.21%
- viability, T/C [18]: 0.23%
- viability, T/C [19]: 104%
- viability, T/C [20]: 110%
- viability, T/C [21]: 5.11%
- viability, T/C [22]: 0.26%
- viability, T/C [23]: 0.2%
- viability, T/C [24]: 0.22%
- viability, T/C [25]: 103%
- viability, T/C [26]: 110%
- viability, T/C [27]: 4.25%
- viability, T/C [28]: 0.25%
- viability, T/C [29]: 0.22%
- viability, T/C [30]: 0.24%
- viability, T/C [31]: 102%
- viability, T/C [32]: 107%
- viability, T/C [33]: 6.02%
- viability, T/C [34]: 0.26%
- viability, T/C [35]: 0.93%
- viability, T/C [36]: 0.25%
